Non-standard residues stand in square brackets, D forms with d. Residues, ends and D or L forms follow the SMILES beside them. Nle = CCCC[C@H](N)C(=O)O
Assays:
[1] = system: L. infantum promastigotes; test: Leishmanicidal activity on promastigotes (PI exclusion, flow cytometry); assay type: cell-based, Leishmania infantum; details: HepG2 / promastigotes
Procedure: (§1) L. infantum promastigotes (MCAN/ES/89/IPZ229/1/89) were grown in Roswell Park Memorial Institute (RPMI)-1640 medium (Sigma-Aldrich, St. Louis, MO) supplemented with 10% heat-inactivated fetal calf serum (FCS), antibiotics, and 25 mM HEPES (pH 7.2) at 26 °C. L. infantum axenic amastigotes (MCAN/ES/89/IPZ229/1/89) were grown in M199 medium (Invitrogen, Leiden, The Netherlands) supplemented with 10% heat-inactivated FCS, 1 g/L β-alanine, 100 mg/L L-asparagine, 200 mg/L sucrose, 50 mg/L sodium pyruvate, 320 mg/L malic acid, 40 mg/L fumaric acid, 70 mg/L succinic acid, 200 mg/L α-ketoglutaric acid, 300 mg/L citric acid, 1.1 g/L sodium bicarbonate, 5 g/L morpholineethanesulfonic acid (MES), 0.4 mg/L hemin, and 10 mg/L gentamicine, pH 5.4, at 37 °C.
(§2) Drug treatment of L. infantum promastigotes was performed during the logarithmic growth phase at a concentration of 2 × 10^6 parasites/mL at 26 °C for 24 h. […] EC50 was evaluated by flow cytometry by the propidium iodide (PI) exclusion method. After selection of the parasite population based on their forward scatter (FSC) and side scatter (SSC) values, live and dead parasite cells were identified by their permeability to PI. All of the assays were conducted in triplicate in at least three independent experiments. Data were analyzed using a nonlinear regression model with GraFit 6 software (Erithacus, Horley, Surrey, U.K.).

[2] = system: L. infantum axenic amastigotes; test: Leishmanicidal activity on axenic amastigotes (PI exclusion, flow cytometry); assay type: cell-based, Leishmania infantum; details: HepG2 / axenic amastigotes
Procedure: as §1
Axenization was performed by diluting 0.5 mL of a 7-day stationary phase culture of L. infantum promastigotes (2–3 × 10^7 parasites/mL) in 4.5 mL of amastigotes medium and incubating the culture at 37 °C for 2 or 3 days. L. infantum axenic amastigotes apparition was followed by phase-contrast microscopy using an Eclipse Ti inverted microscope (Nikon, Tokyo, Japan).
as §2

## CCCC[C@H](NC(=O)[C@H](CCCCN)NC(=O)[C@H](CCCC)NC(=O)[C@H](CO)NC(=O)[C@@H](NC(=O)CNC(=O)[C@@H](NC(=O)[C@H](CO)NC(=O)[C@H](CCC(N)=O)NC(=O)[C@@H](NC(=O)[C@@H](NC(=O)[C@H](CCCCN)NC(=O)[C@@H]1CCCN1C(=O)[C@H](CCCNC(=N)N)NC(=O)[C@H](CCCNC(=N)N)NC(=O)[C@H](CCCNC(=N)N)NC(=O)[C@H](CCCNC(=N)N)NC(=O)[C@H](CCCNC(=N)N)NC(=O)[C@H](CCCNC(=N)N)NC(=O)[C@H](CCCNC(=N)N)NC(=O)[C@H](CCCNC(=N)N)NC(=O)[C@H](CCCNC(=N)N)NC(C)=O)[C@@H](C)CC)[C@@H](C)CC)C(C)C)[C@@H](C)CC)C(N)=O [R9-peptide 1, reference compound] (Ac-RRRRRRRRRPKIIQSVGIS[Nle]K[Nle]-NH2; N-terminus and C-terminus assumed)
[1]
  SIp (ratio of EC50 against human cells to EC50 against promastigotes): 19.9
[2]
  SIa (ratio of EC50 against human cells to EC50 against amastigotes): 18.1

Source: article PMC8480782, “Efficient Dimerization Disruption of Leishmania infantum Trypanothione Reductase by Triazole-phenyl-thiazoles” (Journal of Medicinal Chemistry, 2021)
